The results in this text go back to ChEMBL document CHEMBL3987221, “The Australian National University Dept Of Immunology Pathogen Box Compounds Screened” (2018).

Active and inactive are the calls of the source. No rule for the calls is given here.

Experiment [1] concerns the target T1, Porphobilinogen deaminase (Homo sapiens) (UniProt P08397).
T1 sequence (whole entry): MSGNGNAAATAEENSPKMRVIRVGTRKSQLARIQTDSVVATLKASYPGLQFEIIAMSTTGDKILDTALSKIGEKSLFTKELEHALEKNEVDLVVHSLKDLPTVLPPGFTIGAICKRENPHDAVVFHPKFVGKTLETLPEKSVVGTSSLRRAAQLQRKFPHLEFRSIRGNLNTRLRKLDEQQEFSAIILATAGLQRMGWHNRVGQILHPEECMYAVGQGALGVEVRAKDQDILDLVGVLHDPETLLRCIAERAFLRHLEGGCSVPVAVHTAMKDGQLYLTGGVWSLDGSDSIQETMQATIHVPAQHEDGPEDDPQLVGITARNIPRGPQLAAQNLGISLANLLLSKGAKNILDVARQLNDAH
Conditions: at 100 µM.
Description: Compound was evaluated for the inhibition of human HMBS at 100uM

Experiment [2] concerns the target T2, Ferrochelatase, mitochondrial (Homo sapiens) (UniProt P22830).
T2 sequence (whole entry): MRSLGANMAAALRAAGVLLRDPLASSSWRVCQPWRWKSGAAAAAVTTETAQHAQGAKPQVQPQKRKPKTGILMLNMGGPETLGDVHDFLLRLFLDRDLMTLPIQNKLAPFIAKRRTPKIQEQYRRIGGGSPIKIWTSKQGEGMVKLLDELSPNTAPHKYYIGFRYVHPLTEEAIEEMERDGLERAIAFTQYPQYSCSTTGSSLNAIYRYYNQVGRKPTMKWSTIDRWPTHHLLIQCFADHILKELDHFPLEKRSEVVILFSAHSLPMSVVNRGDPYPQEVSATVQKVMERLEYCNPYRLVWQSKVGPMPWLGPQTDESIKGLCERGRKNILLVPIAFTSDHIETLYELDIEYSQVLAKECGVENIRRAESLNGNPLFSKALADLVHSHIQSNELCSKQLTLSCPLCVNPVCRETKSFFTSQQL
Conditions: at 10 µM.
Description: Compound was evaluated for the inhibition of human FECH at 10uM

As to `COc1cc(C2=NCCN2)cc2cc(-c3ccc(C4=NCCN4)cc3)oc12`, the inhibition entry in experiment [1] and in experiment [2] was “inactive” throughout.
Regarding `CCC(NC(=O)c1ccccc1NC(=O)c1ccc(C)cc1)C(=O)OC` (stereo not drawn), the inhibition result in experiment [1] and in experiment [2] was “inactive” in each case.
As for `CNCCC(Oc1ccc(C(F)(F)F)cc1)c1ccccc1` (stereo not drawn), the inhibition entry in experiment [1] and in experiment [2] was “inactive” in each case.
For the compound `Cc1cc(NCCc2ccccc2)nc(NC(=N)Nc2ccc(Cl)cc2)n1`, the inhibition entry in experiment [1] and in experiment [2] was “inactive” in each case.
Consider `CCCCOC(=O)Nc1cc2nc(C3CCCCC3)[nH]c2cc1N1CCCC1`, for which the inhibition entry in experiment [1] and in experiment [2] was “inactive” each time.
Consider `Cc1cc(OCC(=O)Nc2ccc(C(C)C)cc2)n(C)c(=O)c1C#N`, for which the inhibition entry in experiment [1] and in experiment [2] was “inactive” each time.
In the case of `N#Cc1nc(-c2ccccc2F)oc1NCCc1ccccc1`, the inhibition entry in experiment [1] and in experiment [2] was “inactive” throughout.
Consider `CC(=O)Nc1ccc(-c2noc(CC3CCCN(Cc4cccc(F)c4C)C3)n2)cc1` (stereo not drawn), for which the inhibition entry in experiment [1] and in experiment [2] was “inactive” in each case.
In the case of `c1ccc(Oc2ccc(-c3cc(C4CCOCC4)[nH]n3)cc2)cc1`, the inhibition entry in experiment [1] and in experiment [2] was “inactive” throughout.
Consider `Cc1cc2ccccc2n1CC(=O)N1CC(C(=O)N2CCCCC2)Oc2ccccc21` (stereo not drawn), for which the inhibition result in experiment [1] and in experiment [2] was “inactive” each time.
Take `COc1cc(C2=NCCN2)ccc1-n1cc(-c2cccc(C3=NCCN3)c2)nn1`: the inhibition entry in experiment [1] and in experiment [2] was “inactive” in each case.
On to `N=C(N)c1ccc(OCCCCCOc2ccc(C(=N)N)cc2)cc1`, for which the inhibition entry in experiment [1] and in experiment [2] was “inactive” each time.
For the compound `CC(=O)NCC1CN(c2ccc(-c3ccc(CNCc4cn[nH]n4)cc3)c(F)c2)C(=O)O1` (stereo not drawn), the inhibition entry in experiment [1] and in experiment [2] was “inactive” throughout.
Regarding `Cc1cc(OCC(=O)NCc2ccccc2)c2cc(Br)ccc2n1`, the inhibition result in experiment [1] and in experiment [2] was “inactive” in each case.
In the case of `C[C@H]1c2cccc(O)c2C(=O)C2=C(O)[C@]3(O)C(=O)C(C(N)=O)=C(O)[C@@H](N(C)C)[C@@H]3[C@@H](O)[C@@H]21`, the inhibition entry in experiment [1] and in experiment [2] was “inactive” each time.
Turning to `COc1cc(NC(=O)Cc2nn(C)c(=O)c3ccccc23)ccc1Cl`, the inhibition result in experiment [1] and in experiment [2] was “inactive” throughout.
Take `CCC(Sc1nc2ccccc2o1)C(=O)Nc1nnc(C)s1` (stereo not drawn): the inhibition entry in experiment [1] and in experiment [2] was “inactive” in each case.
As to `O=C(Nc1ccccc1)c1ccc(-c2cc3ccncc3cc2OC2CCNCC2)s1`, the inhibition result in experiment [1] and in experiment [2] was “inactive” each time.
Consider `Cc1cc(Cl)c(S(=O)(=O)N2CCCC2)cc1OCC(=O)NC1CCCCC1`, for which the inhibition entry in experiment [1] and in experiment [2] was “inactive” each time.
On to `OCc1ccc(-c2cncc(Nc3cccc(Cl)c3)c2)cc1`, for which the inhibition result in experiment [1] and in experiment [2] was “inactive” in each case.
For the compound `Cc1ccc(-c2nc(CN(Cc3ccccn3)C(C)C)cs2)o1`, the inhibition entry in experiment [1] and in experiment [2] was “inactive” each time.
Turning to `CC(C)(C)OC(=O)N1CCC(Cn2nc(-c3cnc4ccccc4c3)c3c(N)ncnc32)CC1`, the inhibition result in experiment [1] and in experiment [2] was “inactive” throughout.
For the compound `CC(C)C(C(=O)Nc1ccc(S(=O)(=O)N(C)C)cc1)c1ccc(Cl)cc1` (stereo not drawn), the inhibition entry in experiment [1] and in experiment [2] was “inactive” in each case.
Consider `CC(C)(C)c1cc(C(=O)N2CCN(c3nccnc3C#N)CC2)n(Cc2ccccc2)n1`, for which the inhibition result in experiment [1] and in experiment [2] was “inactive” each time.
For the compound `O=C(NC1CCN(c2ccnc3ccccc23)C1)c1cccc(C(F)(F)F)c1` (stereo not drawn), the inhibition entry in experiment [1] and in experiment [2] was “inactive” in each case.
Consider `C[C@]1(COc2ccc(N3CCC(Oc4ccc(OC(F)(F)F)cc4)CC3)cc2)Cn2cc([N+](=O)[O-])nc2O1`, for which the inhibition result in experiment [1] and in experiment [2] was “inactive” in each case.
With `CCOc1ccc(-c2nc(NC(=O)CS(=O)(=O)c3ccccc3)sc2C)cc1`, the inhibition entry in experiment [1] and in experiment [2] was “inactive” in each case.
With `O=C(NC1CC1)c1ccc(CSCc2ccccc2Cl)o1`, the inhibition entry in experiment [1] and in experiment [2] was “inactive” throughout.
For `Nc1ncnc2[nH]nc(Cc3cccc4ccccc34)c12`, the inhibition entry in experiment [1] and in experiment [2] was “inactive” in each case.
With `CC(Oc1cccc(Cl)c1)C(=O)Nc1ccc2oc(-c3ccncc3)nc2c1` (stereo not drawn), the inhibition result in experiment [1] and in experiment [2] was “inactive” each time.
Take `CCCCN(CCCC)c1c(C#N)cc(S(=O)(=O)Nc2ccccc2)cc1C#N`: the inhibition result in experiment [1] and in experiment [2] was “inactive” each time.
For `CN1CCN(c2nccc3[nH]c(-c4cccc(F)c4)cc23)CC1`, the inhibition result in experiment [1] and in experiment [2] was “inactive” throughout.
With `Cc1cc(NC(=O)c2ccc(S(=O)(=O)N(Cc3ccccc3)C(C)C)cc2)no1`, the inhibition entry in experiment [1] and in experiment [2] was “inactive” each time.
In the case of `CC1COC(Cn2cncn2)(c2ccc(Oc3ccc(Cl)cc3)cc2Cl)O1` (stereo not drawn), the inhibition entry in experiment [1] and in experiment [2] was “inactive” throughout.
With `CC1CC1C(=O)NC1CCN(CC2(c3ccccc3)CCCCC2)CC1` (stereo not drawn), the inhibition result in experiment [1] and in experiment [2] was “inactive” each time.
Take `CNC1C(OC2C(OC3C(O)C(O)C(N=C(N)N)C(O)C3N=C(N)N)OC(C)C2(O)C=O)OC(CO)C(O)C1O` (stereo not drawn): the inhibition result in experiment [1] and in experiment [2] was “inactive” in each case.
Regarding `COc1ccc(Nc2ccccc2NC(=O)c2ccc(O)nc2)cc1`, the inhibition result in experiment [1] and in experiment [2] was “inactive” in each case.
Take `CCOC(=O)c1c(NC(=O)c2c(F)c(F)c(F)c(F)c2F)sc(C(N)=O)c1C`: the inhibition result in experiment [1] and in experiment [2] was “inactive” in each case.
For the compound `COC(=O)c1cccc2oc(-c3cccc(OC)c3NC(=O)c3cc(-c4ccccc4)on3)nc12`, the inhibition entry in experiment [1] and in experiment [2] was “inactive” each time.
Consider `C[C@]1(O)C[C@@H](c2nc(-c3ccc4ccc(-c5ccccc5)nc4c3)c3c(N)nccn32)C1`, for which the inhibition result in experiment [1] and in experiment [2] was “inactive” throughout.
Turning to `O=C(NC1=NCCS1)c1sc2cc(F)ccc2c1Cl`, the inhibition result in experiment [1] and in experiment [2] was “inactive” in each case.
In the case of `O=C(NCc1cc(Cl)cc(Cl)c1)c1c(C(F)(F)F)nc2ccccn12`, the inhibition result in experiment [1] and in experiment [2] was “inactive” in each case.
On to `NCCN(C(=O)c1ccc(Cl)cc1Cl)c1ccc(OCc2ccc(Cl)cc2)cc1`, for which the inhibition entry in experiment [1] and in experiment [2] was “inactive” throughout.
In the case of `CC(C)C(NC(=O)Cc1cccc2ccccc12)C(=O)Nc1cccc(C#N)c1` (stereo not drawn), the inhibition entry in experiment [1] and in experiment [2] was “inactive” each time.
Regarding `Nc1ncnc2c1ncn2C[C@@H](O)[C@@H](O)C(=O)O`, the inhibition entry in experiment [1] and in experiment [2] was “inactive” throughout.
With `Nc1ncnc2c1ncn2[C@@H]1O[C@H](COS(=O)(=O)NC(=O)c2ccccc2O)[C@@H](O)[C@H]1O`, the inhibition entry in experiment [1] and in experiment [2] was “inactive” in each case.
With `COc1cc(-c2cc(-c3ccc(S(C)(=O)=O)cc3)cnc2N)ccc1O`, the inhibition result in experiment [1] and in experiment [2] was “inactive” in each case.
Take `CC(C)(CN)c1nc(-c2ccc(Cl)c(O)c2)c(-c2ccnc(N)n2)[nH]1`: the inhibition result in experiment [1] and in experiment [2] was “inactive” throughout.
As to `CC(Oc1ccccc1)C(=O)Nc1nc(-c2ccccn2)cs1` (stereo not drawn), the inhibition entry in experiment [1] and in experiment [2] was “inactive” in each case.
On to `COc1ccc(Oc2ccc([C@@H](C)N(C)c3ncc4c(N)nc(N)nc4n3)cc2)cc1`, for which the inhibition entry in experiment [1] and in experiment [2] was “inactive” each time.
On to `O=C(NC1CC1)c1ccc(N2CCC(Cc3ccccc3)CC2)nc1`, for which the inhibition entry in experiment [1] and in experiment [2] was “inactive” throughout.
As for `COc1nc2ccc(Br)cc2cc1[C@@H](c1ccccc1)[C@@](O)(CCN(C)C)c1cccc2ccccc12`, the inhibition result in experiment [1] and in experiment [2] was “inactive” throughout.
Regarding `Cc1ccccc1CN1CCC(O)(c2ccc(Cl)c(C(F)(F)F)c2)CC1`, the inhibition entry in experiment [1] and in experiment [2] was “inactive” in each case.
As for `CO/N=C(\C(=O)OC)c1ccccc1CO/N=C(\C)c1cccc(C(F)(F)F)c1`, the inhibition result in experiment [1] and in experiment [2] was “inactive” in each case.
